Structures can show the parent of a compound that is named as a salt.
Target: T1, hNav1.7 (Homo sapiens, UniProt Q15858)
T1 construct: expressed in transfected cells
Assay: Tritiated compound binding (LBA) to membranes from cells expressing hNav1.7 and the β1 subunit, competitive binding
Details: competitive binding vs 100 pM [3H]compound, 18 h, room temperature, membranes with hNav1.7 and β1 subunit
Protocol: Tritiated Compound Binding to Membranes
Isolated from Cells that Heterologously Express hNav1.7 and the β1 Subunit
Preparation of membranes containing recombinantly expressed sodium channels: Frozen recombinant cell pellets were thawed on ice and diluted to 4 times the cell pellet weight with ice cold 50 mM Tris HCl, pH 7.4 buffer. The cell suspensions were homogenized on ice using a motorized glass dounce homogeniser. […] The supernatants were collected and centrifuged at 10000×g at 4° C. for 50 min. The pellets were then re-suspended in 100 mM NaCl, 20 mM Tris HCl, pH 7.4 buffer containing 1% v/v protease inhibitors (Calbiochem) and re-homogenized on ice. The homogenized membranes were then processed through a syringe equipped with a 26 gauge needle. Protein concentrations were determined by Bradford Assay and the membranes were stored at −80° C.
Saturation experiments. A representative compound of formula (I) having a methyl group was tritiated. Three tritiums were incorporated in place of methyl hydrogens to generate [^3H]compound. Binding of this radioligand was performed in 5 mL borosilicate glass test tubes at room temperature. Binding was initiated by adding membranes to increasing concentrations of [^3H]compound in 100 mM NaCl, 20 mM Tris HCl, pH 7.4 buffer containing 0.01% w/v bovine serum albumin (BSA) for 18 h. Non-specific binding was determined in the presence of 1 μM unlabeled compound. After 18 h, the reactants were filtered through GF/C glass fiber filters presoaked in 0.5% w/v polyethylene imine. […] [^3H]compound bound to filters was quantified by liquid scintillation counting.
Binding reactions were performed in 96-well polypropylene plates at room temperature for 18 h. In 360 μL, membranes were incubated with 100 pM [^3H]compound and increasing concentrations of Test Compound. Non-specific binding was defined in the presence of 1 μM unlabeled compound. Reactions were transferred and filtered through 96-well glass fiber/C filter plates presoaked with 0.5% polyethylene imine. […] Bound radioactivity was determined by liquid scintillation counting.
Data Analysis: For saturation experiments, non-specific binding was subtracted from total binding to provide specific binding and these values were recalculated in terms of pmol ligand bound per mg protein. Saturation curves were constructed and dissociation constants were calculated using the single site ligand binding model: Beq=(Bmax*X)/(X+Kd), where Beq is the amount of ligand bound at equilibrium, Bmax is the maximum receptor density, Kd is the dissociation constant for the ligand, and X is the free ligand concentration. For competition studies percent inhibition was determined and IC50 values were calculated using a 4 parameter logistic model (% inhibition=(A+((B−A)/(1+((x/C)^D)))) using XLfit, where A and B are the maximal and minimum inhibition respectively, C is the IC50 concentration and D is the (Hill) slope.

T1 sequence (Q15858 1-1977 isoform Q15858-3): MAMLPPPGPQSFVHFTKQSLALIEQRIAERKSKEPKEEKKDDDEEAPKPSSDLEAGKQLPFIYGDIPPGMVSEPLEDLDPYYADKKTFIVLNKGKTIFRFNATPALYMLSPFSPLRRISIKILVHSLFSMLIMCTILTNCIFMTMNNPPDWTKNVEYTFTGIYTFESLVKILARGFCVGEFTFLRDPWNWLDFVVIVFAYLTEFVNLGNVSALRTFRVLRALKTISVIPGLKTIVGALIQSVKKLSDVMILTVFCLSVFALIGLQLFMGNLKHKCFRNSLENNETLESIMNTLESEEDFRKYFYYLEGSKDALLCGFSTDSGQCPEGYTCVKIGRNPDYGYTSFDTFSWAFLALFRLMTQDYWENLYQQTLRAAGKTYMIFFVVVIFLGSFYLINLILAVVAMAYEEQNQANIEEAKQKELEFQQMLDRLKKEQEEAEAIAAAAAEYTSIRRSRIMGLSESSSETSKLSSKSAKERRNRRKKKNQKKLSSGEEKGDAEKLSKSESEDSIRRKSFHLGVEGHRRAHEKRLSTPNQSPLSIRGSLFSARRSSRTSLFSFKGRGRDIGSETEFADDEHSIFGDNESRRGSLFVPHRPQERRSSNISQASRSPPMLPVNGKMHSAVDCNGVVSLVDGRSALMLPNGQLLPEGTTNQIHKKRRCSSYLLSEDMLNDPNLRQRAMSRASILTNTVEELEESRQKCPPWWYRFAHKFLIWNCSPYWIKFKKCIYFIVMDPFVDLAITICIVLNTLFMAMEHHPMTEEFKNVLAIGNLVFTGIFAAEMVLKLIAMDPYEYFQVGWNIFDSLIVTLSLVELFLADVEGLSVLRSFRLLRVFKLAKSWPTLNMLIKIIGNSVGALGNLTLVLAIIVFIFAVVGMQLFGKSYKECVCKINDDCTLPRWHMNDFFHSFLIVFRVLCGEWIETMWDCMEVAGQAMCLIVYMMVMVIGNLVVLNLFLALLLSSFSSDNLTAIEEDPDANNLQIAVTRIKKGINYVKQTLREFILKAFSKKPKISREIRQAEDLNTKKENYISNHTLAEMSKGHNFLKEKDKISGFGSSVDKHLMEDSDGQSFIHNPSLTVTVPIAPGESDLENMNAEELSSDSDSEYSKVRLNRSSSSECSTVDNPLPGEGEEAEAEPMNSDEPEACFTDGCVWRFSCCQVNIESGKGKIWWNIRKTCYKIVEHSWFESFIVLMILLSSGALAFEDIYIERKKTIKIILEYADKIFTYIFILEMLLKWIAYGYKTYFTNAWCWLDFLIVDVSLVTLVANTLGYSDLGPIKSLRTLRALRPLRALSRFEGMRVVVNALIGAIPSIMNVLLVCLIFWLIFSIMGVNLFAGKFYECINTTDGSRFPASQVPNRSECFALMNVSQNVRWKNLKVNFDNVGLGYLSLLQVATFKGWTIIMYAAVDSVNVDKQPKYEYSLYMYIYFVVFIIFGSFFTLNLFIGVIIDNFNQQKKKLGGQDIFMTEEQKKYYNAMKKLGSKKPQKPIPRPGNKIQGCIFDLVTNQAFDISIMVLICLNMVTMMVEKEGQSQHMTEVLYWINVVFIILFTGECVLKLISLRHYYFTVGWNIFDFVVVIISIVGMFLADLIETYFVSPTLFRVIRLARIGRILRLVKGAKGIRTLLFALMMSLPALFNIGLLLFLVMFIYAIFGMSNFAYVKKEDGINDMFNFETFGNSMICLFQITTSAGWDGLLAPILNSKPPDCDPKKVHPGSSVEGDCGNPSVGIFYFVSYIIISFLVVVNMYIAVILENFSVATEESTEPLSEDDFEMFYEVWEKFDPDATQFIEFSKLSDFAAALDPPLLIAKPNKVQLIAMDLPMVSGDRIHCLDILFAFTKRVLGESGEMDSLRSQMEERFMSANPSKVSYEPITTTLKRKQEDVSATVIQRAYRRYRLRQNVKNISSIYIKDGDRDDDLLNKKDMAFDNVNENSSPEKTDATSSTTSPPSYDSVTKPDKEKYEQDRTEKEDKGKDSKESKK
T1 sequence (Q07699 19-218 partner): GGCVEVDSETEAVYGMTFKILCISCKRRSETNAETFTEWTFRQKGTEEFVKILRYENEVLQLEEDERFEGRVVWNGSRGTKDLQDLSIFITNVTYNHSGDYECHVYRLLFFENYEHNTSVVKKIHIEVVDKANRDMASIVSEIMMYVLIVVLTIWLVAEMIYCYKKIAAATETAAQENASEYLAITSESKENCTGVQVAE

SMILES | IC50
O=C(O)[C@H]1CCCN1C(=O)c1cc(C2CC2)c(OCC23CC4CC(CC(C4)C2)C3)cc1F [Example 2, (R)-1-(4-(adamantan-1-ylmethoxy)-5-cyclopropyl-2-fluorobenzoyl)pyrrolidine-2-carboxylic acid] | 426 nM
CC12CC3(C)CC(C)(C1)CC(COc1cc(F)c(C(=O)N4CCC[C@H]4C(=O)O)cc1C1CC1)(C2)C3 [Example 3, (S)-1-(5-cyclopropyl-2-fluoro-4-((3,5,7-trimethyladamantan-1-yl)methoxy)benzoyl)pyrrolidine-2-carboxylic acid] | 8.9 nM
O=C(O)[C@@H]1CCCN1C(=O)c1cc(C2CC2)c(OCC23CC4(F)CC(F)(CC(F)(C4)C2)C3)cc1F [Example 4, (5)-1-(5-cyclopropyl-2-fluoro-4-((3,5,7-trifluoroadamantan-1-yl)methoxy)benzoyl)pyrrolidine-2-carboxylic acid] | 817 nM
O=C(O)[C@@H]1CCCN1C(=O)c1cc(C2CC2)c(CN2CCO[C@H](Cc3cc(Cl)cc(Cl)c3)C2)cc1F [Example 5, (S)-1-(5-cyclopropyl-4-(((R)-2-(3,5-dichlorobenzyl)morpholino)methyl)-2-fluorobenzoyl)pyrrolidine-2-carboxylic acid trifluoroacetic acid salt] | 468 nM
CN(C(=O)c1cc(C2CC2)c(OCC23CC4CC(CC(C4)C2)C3)cc1F)C1(C(=O)O)CC1 [Example 7, 1-(4-(adamantan-1-ylmethoxy)-5-cyclopropyl-2-fluoro-N-methylbenzamido)-cyclopropanecarboxylic acid] | 3050 nM
CC(C)(NC(=O)c1cc(C2CC2)c(OCC23CC4CC(CC(C4)C2)C3)cc1F)C(=O)O [Example 8, 2-(4-(adamantan-1-ylmethoxy)-5-cyclopropyl-2-fluorobenzamido)-2-methylpropanoic acid] | 1690 nM
C[C@@H](Oc1ccc(Cl)c(Cl)c1)c1cc(F)c(C(=O)NC2(C(=O)O)CC2)cc1C1CC1 [Example 9, (R)-1-(5-cyclopropyl-4-(1-(3,4-dichlorophenoxy)ethyl)-2-fluorobenzamido)cyclopropanecarboxylic acid] | > 10000 nM
COC[C@H](NC(=O)c1cc(C2CC2)c(OCC23CC4CC(CC(C4)C2)C3)cc1F)C(=O)O [Example 10, (S)-2-(4-(adamantan-1-ylmethoxy)-5-cyclopropyl-2-fluorobenzamido)-3-methoxypropanoic acid] | 681 nM
CC1(COc2cc(F)c(C(=O)N3CCC[C@H]3C(=O)O)cc2C2CC2)CCC(F)(F)CC1 [Example 12, (S)-1-(5-cyclopropyl-4-((4,4-difluoro-1-methylcyclohexyl)methoxy)-2-fluorobenzoyl)pyrrolidine-2-carboxylic acid] | 984 nM
O=C(O)[C@@H]1CCCN1C(=O)c1cc(C2CC2)c(OCC2CCCCC2)cc1F [Example 13, (S)-1-(4-(cyclohexylmethoxy)-5-cyclopropyl-2-fluorobenzoyl)pyrrolidine-2-carboxylic acid] | 173 nM
C[C@@H](Oc1ccc(Cl)c(Cl)c1)c1cc(F)c(C(=O)N2CCC[C@H]2C(=O)O)cc1C1CC1 [Example 14, (S)-1-(5-cyclopropyl-4-((R)-1-(3,4-dichlorophenoxy)ethyl)-2-fluorobenzoyl)pyrrolidine-2-carboxylic acid] | 2370 nM
C[C@@H](Oc1cnc(C2CC2)c(Cl)c1)c1cc(F)c(C(=O)N2CCC[C@H]2C(=O)O)cc1C1CC1 [Example 15, (S)-1-(4-((R)-1-((5-chloro-6-cyclopropylpyridin-3-yl)oxy)ethyl)-5-cyclopropyl-2-fluorobenzoyl)pyrrolidine-2-carboxylic acid] | 6960 nM
CC1(C)CCCC(COc2cc(F)c(C(=O)N3CCC[C@H]3C(=O)O)cc2C2CC2)C1 (stereo partly drawn) [Example 16, (2S)-1-(5-cyclopropyl-4-((3,3-dimethylcyclohexyl)methoxy)-2-fluorobenzoyl)pyrrolidine-2-carboxylic acid] | 39.8 nM
CC(C)c1cc(C(=O)N2CCC[C@H]2C(=O)O)c(F)cc1OCC12CC3CC(CC(C3)C1)C2 [Example 17, (S)-1-(4-(adamantan-1-ylmethoxy)-2-fluoro-5-isopropylbenzoyl)pyrrolidine-2-carboxylic acid] | 87.2 nM
O=C(O)[C@@H]1CCCN1C(=O)c1cc(C2CC2)c(O[C@H]2C3CC4CC2C[C@](F)(C4)C3)cc1F [Example 18, (S)-1-(5-cyclopropyl-2-fluoro-4-(((1R,2s,3S,5R,7R)-5-fluoroadamantan-2-yl)oxy)benzoyl)pyrrolidine-2-carboxylic acid] | 4500 nM
O=C(O)[C@@H]1CCCN1C(=O)c1cc(C2CC2)c(CN2[C@@H]3CC[C@H]2C[C@@H](Oc2cc(Cl)cc(OC(F)(F)F)c2)C3)cc1F [Example 19, (S)-1-(4-(((1R,3S,5S)-3-(3-chloro-5-(trifluoromethoxy)phenoxy)-8-azabicyclo[3.2.1]octan-8-yl)methyl)-5-cyclopropyl-2-fluorobenzoyl)pyrrolidine-2-carboxylic acid trifluoroacetic acid salt] | 443 nM
O=C(O)[C@@H]1CCCN1C(=O)c1cc(C2CC2)c(CN2CCC(Oc3cc(Cl)cc(OC(F)(F)F)c3)CC2)cc1F [Example 20, (S)-1-(4-((4-(3-chloro-5-(trifluoromethoxy)phenoxy)piperidin-1-yl)methyl)-5-cyclopropyl-2-fluorobenzoyl)pyrrolidine-2-carboxylic acid trifluoroacetic acid salt] | 554 nM
CC1(COc2cc(F)c(C(=O)N3CCC[C@H]3C(=O)O)cc2C2CC2)CN(c2cc(C(F)(F)F)c(Cl)cn2)C1 [Example 21, (S)-1-(4-((1-(5-chloro-4-(trifluoromethyl)pyridin-2-yl)-3-methylazetidin-3-yl)methoxy)-5-cyclopropyl-2-fluorobenzoyl)pyrrolidine-2-carboxylic acid trifluoroacetic acid salt] | 359 nM
O=C(O)[C@@H]1CCCN1C(=O)c1cc(F)c(Oc2ccc(Cl)cc2-c2ccccc2)cc1F [Example 22, (S)-1-(4-((5-chloro-[1,1′-biphenyl]-2-yl)oxy)-2,5-difluorobenzoyl)pyrrolidine-2-carboxylic acid] | > 10000 nM
O=C(O)[C@@H]1CCCN1C(=O)c1ccc(OCC23CC4CC(CC(C4)C2)C3)c(Cl)c1 [Example 23, (S)-1-((4-(adamantan-1-ylmethoxy))-3-chlorobenzoyl)pyrrolidine-2-carboxylic acid] | 3960 nM
O=C(O)[C@@H]1CCCN1C(=O)c1cc(Cl)c(Oc2cnc(OCC(F)(F)F)c(Cl)c2)cc1F [Example 24, (S)-1-(5-chloro-4-((5-chloro-6-(2,2,2-trifluoroethoxy)pyridin-3-yl)oxy)-2-fluorobenzoyl)pyrrolidine-2-carboxylic acid trifluoroacetic acid salt] | 2730 nM
Nc1noc2ccc(-c3cc(Cl)ccc3Oc3cc(F)c(C(=O)N4CCC[C@H]4C(=O)O)cc3F)cc12 [Example 25, (S)-1-(4-(2-(3-aminobenzo[d]isoxazol-5-yl)-4-chlorophenoxy)-2,5-difluorobenzoyl)pyrrolidine-2-carboxylic acid trifluoroacetic acid] | > 10000 nM
O=C(O)[C@@H]1CCCN1C(=O)c1cc(C2CC2)c(OCC2CCN(C(c3ccccc3)c3cc(Cl)cc(Cl)c3)CC2)cc1F (stereo partly drawn) [Example 26, (2S)-1-(5-cyclopropyl-4-((1-((3,5-dichlorophenyl)(phenyl)methyl)piperidin-4-yl)methoxy)-2-fluorobenzoyl)pyrrolidine-2-carboxylic acid trifluoroacetic acid salt] | 18.1 nM
O=C(O)[C@@H]1CCCN1C(=O)c1cc(C2CCC2)c(OCC23CC4CC(CC(C4)C2)C3)cc1F [Example 27, (S)-1-(4-(adamantan-1-ylmethoxy)-5-cyclobutyl-2-fluorobenzoyl)pyrrolidine-2-carboxylic acid] | 21.7 nM
CC1(COc2cc(F)c(C(=O)N3CCC[C@H]3C(=O)O)cc2C2CC2)CN(C(c2ccccc2)c2cc(Cl)cc(Cl)c2)C1 (stereo partly drawn) [Example 28, (2S)-1-(5-cyclopropyl-4-((1-((3,5-dichlorophenyl)(phenyl)methyl)-3-methylazetidin-3-yl)methoxy)-2-fluorobenzoyl)pyrrolidine-2-carboxylic acid trifluoroacetic acid salt] | 17.6 nM

From patent US10125098B2, “Therapeutic compounds and methods of use thereof” (GENENTECH, INC., priority 2014, dated 2018)
